Where “and” joins values, the source holds several entries; their conditions need not be identical. Equal values may be shown once. Read-outs that look alike come from different tables or passages of the source.
Legend:
[1] = molecular target: hCB1 (Homo sapiens, UniProt P21554); experiment: bioSensAll ebBRET signaling profiling, hCB1; format: cell-based; design: host or cells: HEK293SL cells, transient PEI transfection; conditions: for RE, relative efficacy: vs CP-55,940; for EC50: read-out: EC50 [95% CI]; for Emax: normalized to CP-55,940
hCB1, sequence (P21554 whole entry): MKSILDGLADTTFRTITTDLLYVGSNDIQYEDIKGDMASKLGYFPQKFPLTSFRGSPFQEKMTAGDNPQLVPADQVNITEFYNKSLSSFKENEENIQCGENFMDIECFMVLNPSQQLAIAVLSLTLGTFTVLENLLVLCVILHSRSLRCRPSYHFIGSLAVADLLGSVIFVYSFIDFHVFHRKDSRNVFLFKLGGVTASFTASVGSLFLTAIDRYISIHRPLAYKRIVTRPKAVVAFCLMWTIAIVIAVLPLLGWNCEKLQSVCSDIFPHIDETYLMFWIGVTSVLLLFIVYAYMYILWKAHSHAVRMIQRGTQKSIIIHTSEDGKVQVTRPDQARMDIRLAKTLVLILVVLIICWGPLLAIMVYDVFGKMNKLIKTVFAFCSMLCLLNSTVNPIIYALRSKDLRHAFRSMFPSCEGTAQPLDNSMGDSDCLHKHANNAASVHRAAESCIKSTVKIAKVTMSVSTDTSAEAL

[2] = molecular target: hCB2 (Homo sapiens, UniProt P34972); experiment: Tango β-arrestin-2 recruitment, HTLA cells, CB2R; format: cell-based; design: expressed in transfected cells; host or cells: HEK293 cells stably expressing human CB2R (Laboratory of Ken Mackie); conditions: hCB2
hCB2, sequence (P34972 whole entry): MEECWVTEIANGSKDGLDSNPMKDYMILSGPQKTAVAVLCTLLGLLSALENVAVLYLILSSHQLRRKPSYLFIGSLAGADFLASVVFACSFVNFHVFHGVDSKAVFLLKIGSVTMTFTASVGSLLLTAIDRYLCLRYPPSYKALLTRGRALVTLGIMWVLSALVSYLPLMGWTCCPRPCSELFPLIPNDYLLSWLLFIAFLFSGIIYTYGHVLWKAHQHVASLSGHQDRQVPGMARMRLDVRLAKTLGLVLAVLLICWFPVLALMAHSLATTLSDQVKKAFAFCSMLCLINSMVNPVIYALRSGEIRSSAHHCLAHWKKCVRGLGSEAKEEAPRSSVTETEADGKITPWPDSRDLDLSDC
Protocol: The Tango β-arrestin-2 recruitment assays were performed as described[83]. In brief, HTLA cells (a gift from the laboratory of R. Axel) were transiently transfected with human CB1R or CB2R Tango DNA construct overnight in DMEM supplemented with 10 % FBS, 100 µg ml−1 streptomycin and 100 U ml−1 penicillin. The transfected cells were then plated into poly-L-lysine-coated 384-well white clear-bottom cell culture plates in DMEM containing 1% dialysed FBS at a density of 10,000–15,000 cells per well. After incubation for 6 h, the plates were added with drug solutions prepared in DMEM containing 1% dialysed FBS for overnight incubation. On the day of assay, medium and drug solutions were removed and 20 µl per well of BrightGlo reagent (Promega) was added. The plates were further incubated for 20 min at room temperature and counted using the Wallac TriLux Microbeta counter (PerkinElmer). The results were analysed using GraphPad Prism 9. Each experiment was performed in triplicate and functional IC50 values were determined from the mean of three independent experiments.

[3] = molecular target: CB1 (rCB1) (Rattus norvegicus, UniProt P20272); experiment: Radioligand competition binding, [3H]-CP-55,940, rat brain membranes
CB1 (rCB1), sequence (P20272 whole entry): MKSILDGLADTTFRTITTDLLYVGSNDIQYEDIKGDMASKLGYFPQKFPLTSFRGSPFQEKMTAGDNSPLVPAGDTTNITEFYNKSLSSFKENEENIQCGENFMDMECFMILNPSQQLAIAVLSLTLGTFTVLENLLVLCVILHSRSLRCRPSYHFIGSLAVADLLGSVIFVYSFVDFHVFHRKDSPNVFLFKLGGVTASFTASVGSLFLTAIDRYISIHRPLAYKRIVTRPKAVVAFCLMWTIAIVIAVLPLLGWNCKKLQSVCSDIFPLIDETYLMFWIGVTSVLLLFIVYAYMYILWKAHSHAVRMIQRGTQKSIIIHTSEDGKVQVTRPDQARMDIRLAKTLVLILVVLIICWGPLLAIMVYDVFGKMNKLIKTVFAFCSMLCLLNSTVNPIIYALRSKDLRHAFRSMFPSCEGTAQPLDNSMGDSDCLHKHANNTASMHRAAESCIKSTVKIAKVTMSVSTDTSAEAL

COC(=O)C(C)(NC(=O)c1cc(C)n(-c2cccc(C(F)(F)F)c2)n1)c1cccs1 (stereo not shown) [‘4042]
Gs hCB1 ([1]; Log [Compound] (M) -8): 6741 | Gz hCB1 ([1]; Log [Compound] (M) -8): 97.3733 and 99.8321 and 82.6809 | Barr2+GRK2 hCB1 ([1]; Log [Compound] (M) -8.22186): 47.6346 and 43.8472 | G13 hCB1 ([1]; Log [Compound] (M) -8.22186): 44.4318 and 47.6121 | G15 hCB1 ([1]; Log [Compound] (M) -8.22186): 112.142 and 106.076 | Gi1 hCB1 ([1]; Log [Compound] (M) -8.22186): 104.327 and 106.186 and 100.167 | Gi2 hCB1 ([1]; Log [Compound] (M) -8.22186): 112.022 and 97.4049 | GoB hCB1 ([1]; Log [Compound] (M) -8.22186): 115.24 and 97.3514 and 98.8499 | Gq hCB1 ([1]; Log [Compound] (M) -8.22186): 1073 | Gs hCB1 ([1]; Log [Compound] (M) -8.22186): 6493 | Gz hCB1 ([1]; Log [Compound] (M) -8.22186): 122.54 and 109.635 and 78.9413 | Barr2+GRK2 hCB1 ([1]; Log [Compound] (M) -8.39794): 32.0865 and 32.6356 | G15 hCB1 ([1]; Log [Compound] (M) -8.39794): 101.826 and 96.5808 | Gi1 hCB1 ([1]; Log [Compound] (M) -8.39794): 93.4953 and 99.8959 and 97.0977 | Gi2 hCB1 ([1]; Log [Compound] (M) -8.39794): 102.295 and 80.9389 | GoB hCB1 ([1]; Log [Compound] (M) -8.39794): 81.1381 and 111.288 and 86.2389 | Gq hCB1 ([1]; Log [Compound] (M) -8.39794): 1055 | Gs hCB1 ([1]; Log [Compound] (M) -8.39794): 6872 | Gz hCB1 ([1]; Log [Compound] (M) -8.39794): 84.7686 and 103.436 and 80.0517 | G13 hCB1 ([1]; Log [Compound] (M) -8.68787): 39.593 and 30.3572 | G15 hCB1 ([1]; Log [Compound] (M) -8.68787): 97.8136 and 87.6381 | Gi1 hCB1 ([1]; Log [Compound] (M) -8.68787): 91.7785 and 78.2511 and 91.448 | Gi2 hCB1 ([1]; Log [Compound] (M) -8.68787): 95.663 and 73.4469 | GoB hCB1 ([1]; Log [Compound] (M) -8.68787): 96.3854 and 73.3436 and 84.1561 | Gq hCB1 ([1]; Log [Compound] (M) -8.68787): 1066 | Gs hCB1 ([1]; Log [Compound] (M) -8.68787): 6260 | Gz hCB1 ([1]; Log [Compound] (M) -8.68787): 96.1128 and 114.514 and 58.5255 | G13 hCB1 ([1]; Log [Compound] (M) -9.15521): 17.7531 and 19.6344 | G15 hCB1 ([1]; Log [Compound] (M) -9.15521): 67.1744 and 66.4649 | Gi1 hCB1 ([1]; Log [Compound] (M) -9.15521): 78.7311 and 50.1158 and 63.8224 | Gi2 hCB1 ([1]; Log [Compound] (M) -9.15521): 65.4704 and 47.7485 | GoB hCB1 ([1]; Log [Compound] (M) -9.15521): 59.8283 and 42.5561 and 56.6226 | Gq hCB1 ([1]; Log [Compound] (M) -9.15521): 1117 | Gs hCB1 ([1]; Log [Compound] (M) -9.15521): 6551 | G15 hCB1 ([1]; Log [Compound] (M) -9.61989): 31.8785 and 42.2144 | Gi2 hCB1 ([1]; Log [Compound] (M) -9.61989): 32.2472 and 21.8596 | GoB hCB1 ([1]; Log [Compound] (M) -9.61989): 29.5611 and 20.1669 and 24.5425 | Gq hCB1 ([1]; Log [Compound] (M) -9.61989): 1001 | Gs hCB1 ([1]; Log [Compound] (M) -9.61989): 6299 | G15 hCB1 ([1]; Log [Compound] (M) -10.0969): 15.3529 and 24.9603 | GoB hCB1 ([1]; Log [Compound] (M) -10.0969): 15.2383 and 7.632 and 9.061 | Gq hCB1 ([1]; Log [Compound] (M) -10.0969): 1213 | Gs hCB1 ([1]; Log [Compound] (M) -10.0969): 6447 | Gq hCB1 ([1]; Log [Compound] (M) -10.5529): 1076 | Gs hCB1 ([1]; Log [Compound] (M) -10.5529): 6140 | Gq hCB1 ([1]; Log [Compound] (M) -11.0177): 1045 | Gs hCB1 ([1]; Log [Compound] (M) -11.0177): 6569 | Gq hCB1 ([1]; Log [Compound] (M) -11.4949): 1094 | Gs hCB1 ([1]; Log [Compound] (M) -11.4949): 6245 | Gq hCB1 ([1]; Log [Compound] (M) -11.9208): 1111 | Gs hCB1 ([1]; Log [Compound] (M) -11.9208): 6591 | Gq hCB1 ([1]; Log [Compound] (M) -12.3979): 1117 | Gs hCB1 ([1]; Log [Compound] (M) -12.3979): 6511 | Gq hCB1 ([1]; Log [Compound] (M) -12.8861): 1023 | Gs hCB1 ([1]; Log [Compound] (M) -12.8861): 6621 | pEC50 [95% CI] ([1]; hCB1 G13): 8.69 [8.0 – 9.3] | RE, relative efficacy ([1]; hCB1 G13): 0.91 | RE, relative efficacy ([1]; hCB1 G15): 0.74 | pEC50 [95% CI] ([1]; hCB1 Gi1): 9.32 [9.2 – 9.4] | RE, relative efficacy ([1]; hCB1 Gi1): 0.97 | pEC50 [95% CI] ([1]; hCB1 Gi2): 9.25 [9.0 – 9.5] | RE, relative efficacy ([1]; hCB1 Gi2): 1.01 | pEC50 [95% CI] ([1]; hCB1 GoB): 9.20 [9.1 – 9.3] | RE, relative efficacy ([1]; hCB1 GoB): 1.04 | RE, relative efficacy ([1]; hCB1 Gz): 0.62 | RE, relative efficacy ([1]; hCB1 ßarr2+GRK2): 0.81 | EC50 ([1]; hCB1 Barr2 + GRK2): 3.6 nM | EC50 ([1]; hCB1 G13): 2.1 nM | EC50 ([1]; hCB1 G15): 0.37 nM | EC50 ([1]; hCB1 GoB): 0.64 nM | EC50 ([1]; hCB1 Gz): 0.43 nM | Emax ([1]; read-out: Emax [95% CI], hCB1 Barr2 + GRK2): 72% | Emax ([1]; read-out: Emax [95% CI], hCB1 G13): 64% | Emax ([1]; read-out: Emax [95% CI], hCB1 G15): 105% | Emax ([1]; read-out: Emax [95% CI], hCB1 Gi2): 101% | Emax ([1]; read-out: Emax [95% CI], hCB1 GoB): 103% | Emax ([1]; read-out: Emax [95% CI], hCB1 Gz): 97% | Emax ([2]; HTLA, read-out: Tango ß-arrestin recruitment Emax): 28% | Tango ß-arrestin recruitment pEC50 [2]: 7.5 [7.2 – 7.7] | EC50 ([2]; read-out: Tango ß-arrestin recruitment EC50): 33.9 nM | pKi [95% CI] ([3]; rCB1): 8.7 [8.6 – 8.9] | Ki ([3]; read-out: Ki [95% CI], rCB1, [3H]-CP-55,940): 1.9 nM and 1.86 nM
